Measurements reported in patent US10184933B2, “Compositions, systems and methods for gene expression noise drug screening and uses thereof” (priority 2013, dated 2019).
Entries after “also recorded” stand apart in the source; their conditions may differ. Read-outs that look alike come from different tables or passages of the source.

Legend:
Type in all cases: cell-based
HIV-1 LTR promoter [1] = conditions: for variability in gene expression (noise magnitude) / mean expression level: known transcriptional modulators applied to the isoclone target; for variability in gene expression (noise magnitude) / mean expression level / burst frequency: FIG. 6D; for burst frequency: activator drugs
HIV-1 LTR promoter [2] = experiment: Two-reporter system (LTR-d2GFP and LTR-mCherry) noise measurement; conditions: FIG. 6E; for transcriptional burst frequency (decreasing noise in mCherry): transcriptional modifiers; for d2GFP noise / mCherry noise: known transcriptional activators
Protocol: Without being bound by theory, a destabilized reporter is required to observe transcriptional noise with shorter time scales. GFP noise magnitude (quantified by the variance over the mean fluorescence squared, CV^2) and mean fluorescence were measured by high-throughput flow cytometry 24 hours post 10 uM drug exposure. To control for extrinsic variability in gene expression due to cell volume and state a conservative gating on the population forward versus side scatter was applied (See General Methods). A second LTR driving a long-lived mCherry reporter was integrated and screened alongside the destabilized reporter drug target to control for fluctuations in global resources and post-transcriptional noise sources (FIG. 6E).
To distinguish between compounds that primarily target transcription versus post-transcriptional processes and global resources (extrinsic noise) a second reporter of the LTR promoter driving a stable mCherry gene was included in the same targeted cell population used in the drug noise screen (FIG. 6E). The stable reporter averages out and is unaffected by fluctuations due to episodic transcription. Theory predicts that the destabilized d2GFP reporter can detect transcriptional bursting noise contributions (γp>>kon,koff, where γp is the fluorescent reporter degradation rate) while the two reporters together will move their noise magnitudes to changes in non-transcriptional noise sources. Filtering out non-transcriptional noise signatures of VM hits increases the probability for synergistic reactivation of latency. Noise from the two reporters was compared using the same processing as the LTR-d2GFP. The LTR-mCherry ΔCV^2 of the 85 selected VMs primarily land along the ΔCV^2 d2GFP axis. […]. Of these 25 compounds 15 were identified as modifiers of cell cycle, ATP, inflammation, post-translational modifications, and translation.
In addition to the GFP reporter in the LTR-d2GFP cell line, an LTR driving a long half-life mCherry reporter was present in the cell line. […] To remove compounds that altered CV^2 post transcriptionally, compounds that affected the CV^2 long-lived red reporter while conserving its mean mCherry level were removed. This method continues development of the original and decade-old 2-reporter system for intrinsic versus extrinsic noise measurements in bacteria (Elowitz et al., (2002) Science 297:1183-1186).

HIV-1 LTR promoter [3] = experiment: Single-cell time-lapse fluorescence microscopy of polyclonal LTR d2GFP cell population; conditions: 10 μM, 24 hour pretreatment, tracked 12 hours, ~500 cells
Text: Lentiviral vectors expressing the LTR-GFP cassette in the absence of Tat were described (Weinberger et al., 2005, Cell, 122(2):169-182) and used to infect 5×10^5 Jurkat cells at a multiplicity of infection <0.1, resulting in 25,000-50,000 infected cells each presumably with a unique integration site. Cells were then sorted by FACS to isolate green fluorescent protein-labeled (GFP+) cells and fluorescently imaged on glass-bottom dishes in RPMI 1640 with 10% fetal calf serum and 1% penicillin-streptomycin and 10 μM of VM at t=0 h for the population which was pre-treated with VM 1 day before imaging. […] For each trajectory, noise autocorrelation [Φ(t)] and magnitude (CV^2) were calculated using an established noise-processing algorithm (Weinberger at al., 2008, Nature Genetics, 40(4):466-470; Dar at al., 2012, Proc Natl Acad Sci USA 109:17454-17459; Boehm et al., 2013, Cell Cycle 12:452-462).
To assess whether identified VMs are specific to the integration site of the drug screen target, a polyclonal LTR d2GFP population was treated with select VM hits and imaged using time-lapse single cell fluorescence microscopy (Dar et al., 2012, Proc Natl Acad Sci USA 109:17454-17459; Boehm et al., 2013, Cell Cycle 12:452-462) (FIG. 6C). […]

[4] = tested on: latent HIV-1 in JLat 8.6 cells
[5] = tested on: latent HIV-1 in primary T-cells
Protocol: FIG. 18A schematically depicts a primary T-cell model of HIV-1 latency 48 h after reactivation with PMA or a subset of noise enhancers (% reactivation percentage is calculated relative to maximal reactivation potential). […] The horizontal line represents the mean calculated Bliss Independence Score (C. I. Bliss, Ann. Appl. Biol. 26:585-615 (1939)), a measure for strict additivity for all of the compounds. FIG. 18B schematically depicts stochastic simulations of noise suppression, which reduces noise without altering the mean expression level but limits reactivation induced by an activator. […] Details are described, e.g., in Example 10.

[6] = Pharmakon 1600 library, 10 uM, 24 hours, FIG. 10
[7] = with one or more of PMA, prostratin, TNFα, and bryostatin, FIG. 11

## Nc1ncn([C@@H]2O[C@H](CO)[C@@H](O)[C@H]2O)c(=O)n1 [AZA, 4-Amino-1-(β-D-ribofuranosyl)1,3,5-triazin-2(1H)-one]
HIV-1 LTR promoter [1]; [6]
  identified as variability enhancer (VE) in noise screen: variability enhancers
HIV-1 LTR promoter [1]
  variability in gene expression (noise magnitude): increase variability in gene expression; also recorded: variability enhancers
HIV-1 LTR promoter [2]
  transcriptional burst frequency (decreasing noise in mCherry): increase transcriptional burst frequency

## CCC/C=C/C=C/C(=O)O[C@H]1/C(=C/C(=O)OC)C[C@H]2C[C@H]([C@@H](C)O)OC(=O)C[C@H](O)C[C@@H]3C[C@H](OC(C)=O)C(C)(C)[C@](O)(C[C@@H]4C/C(=C/C(=O)OC)C[C@H](/C=C/C(C)(C)[C@]1(O)O2)O4)O3 [Bryostatin, bryostatin]
HIV-1 LTR promoter [1]
  mean expression level: scored lower
HIV-1 LTR promoter [2]
  d2GFP noise: decrease both mCherry and d2GFP noise
  mCherry noise: decrease both mCherry and d2GFP noise
  transcriptional burst frequency (decreasing noise in mCherry): increase transcriptional burst frequency

## Nc1ccccc1NC(=O)c1ccc(CNC(=O)OCc2cccnc2)cc1 [MS-275, 3-pyridinylmethyl [[4-[[(2-aminophenyl)amino]carbonyl]phenyl]methyl]carbamate]
HIV-1 LTR promoter [1]
  variability in gene expression (noise magnitude): increase variability in gene expression; also recorded: variability enhancers
HIV-1 LTR promoter [2]
  d2GFP noise: increase d2GFP noise
  mCherry noise: decrease mCherry noise
  transcriptional burst frequency (decreasing noise in mCherry): increase transcriptional burst frequency

## CCCCCCCCCCCCCC(=O)O[C@@H]1[C@@H](C)[C@@]2(O)[C@@H](C=C(CO)C[C@]3(O)C(=O)C(C)=C[C@@H]23)[C@@H]2C(C)(C)[C@]12OC(C)=O [PMA, phorbol 12-myristate 13-acetate]
HIV-1 LTR promoter [1]
  burst frequency: increase burst frequency
  mean expression level: increase mean expression level
  variability in gene expression (noise magnitude): decrease variability in gene expression; also recorded: decrease noise magnitude
HIV-1 LTR promoter [2]
  d2GFP noise: decrease both mCherry and d2GFP noise
  mCherry noise: decrease both mCherry and d2GFP noise
  transcriptional burst frequency (decreasing noise in mCherry): increase transcriptional burst frequency

## CC(=O)O[C@@]12CO[C@@H]1C[C@H](O)[C@@]1(C)C(=O)[C@H](O)C3=C(C)[C@@H](OC(=O)[C@H](O)[C@@H](NC(=O)OC(C)(C)C)c4ccccc4)C[C@@](O)([C@@H](OC(=O)c4ccccc4)[C@H]21)C3(C)C [V1, docetaxel]
HIV-1 LTR promoter [1]; [6]
  identified as variability enhancer (VE) in noise screen: variability enhancers
HIV-1 LTR promoter [3]
  high frequency noise magnitude (HF-CV^2) versus untreated polyclonal population: increased high frequency noise magnitude; also recorded: increased noise magnitude trends above the untreated population

## COC(=O)Nc1nc2ccc(C(=O)c3ccccc3)cc2[nH]1 [V7, mebendazole]
HIV-1 LTR promoter [1]; [6]
  identified as variability enhancer (VE) in noise screen: variability enhancers
[4]
  synergy in reactivation of HIV-1 latency: synergized
[5]
  synergy with PMA: reactivating half of the remaining cells that PMA alone did not reactivate
[5]; 48 h, relative to maximal reactivation potential
  increased activation with PMA: ~20%

## CC(=O)OCC(=O)[C@@]1(O)CC[C@H]2[C@@H]3CCC4=CC(=O)CC[C@]4(C)[C@@]3(F)[C@@H](O)C[C@@]21C [V96, fludrocortisone acetate]
HIV-1 LTR promoter [1]
  identified as variability enhancer (VE) in noise screen: variability enhancers
[4]
  synergy in reactivation of HIV-1 latency: synergized

## CCN(C(C)=O)c1cccc(-c2ccnc3c(C#N)cnn23)c1 [V97, zaleplon]
HIV-1 LTR promoter [1]; [6]
  identified as variability enhancer (VE) in noise screen: variability enhancers
[4]
  synergy in reactivation of HIV-1 latency: synergized

## CCCCC(CC)COc1ccc(-c2nc(-c3ccc(OC)cc3)nc(-c3ccc(OCC(CC)CCCC)cc3O)n2)c(O)c1 (stereo not drawn) [V98, bemotrizinol]
HIV-1 LTR promoter [1]; [6]
  identified as variability enhancer (VE) in noise screen: variability enhancers
[4]
  synergy in reactivation of HIV-1 latency: synergized

## Oc1ccc(Cl)cc1 [V99, parachlorophenol]
HIV-1 LTR promoter [1]
  identified as variability enhancer (VE) in noise screen: variability enhancers
[4]
  synergy in reactivation of HIV-1 latency: synergized

## O=[N+]([O-])OCC(CO[N+](=O)[O-])O[N+](=O)[O-] [V100, nitroglycerin]
HIV-1 LTR promoter [1]; [6]
  identified as variability enhancer (VE) in noise screen: variability enhancers
[4]
  synergy in reactivation of HIV-1 latency: synergized

## CC(=O)Nc1c(I)cc(I)c(C(=O)O)c1I [V102, acetriazoic acid]
HIV-1 LTR promoter [1]
  identified as variability enhancer (VE) in noise screen: variability enhancers
[4]
  synergy in reactivation of HIV-1 latency: synergized

## TNFα
HIV-1 LTR promoter [1]
  burst frequency: increase burst frequency
  mean expression level: increase mean expression level
  variability in gene expression (noise magnitude): decrease variability in gene expression; also recorded: decrease noise magnitude
HIV-1 LTR promoter [2]
  d2GFP noise: decrease both mCherry and d2GFP noise
  mCherry noise: decrease both mCherry and d2GFP noise
  transcriptional burst frequency (decreasing noise in mCherry): increase transcriptional burst frequency

## acetophenazine maleate [V12]
HIV-1 LTR promoter [1]
  identified as variability enhancer (VE) in noise screen: variability enhancers
[4]
  synergy in reactivation of HIV-1 latency: synergized

## carboplatin [V71]
HIV-1 LTR promoter [1]; [6]
  identified as variability enhancer (VE) in noise screen: variability enhancers
[4]; [7]
  synergy in reactivation of HIV-1 latency: synergized

## colesevalam hydrochloride [V60]
HIV-1 LTR promoter [1]; [6]
  identified as variability enhancer (VE) in noise screen: variability enhancers
[4]
  synergy in reactivation of HIV-1 latency: synergized

## colistin sulfate [V45]
HIV-1 LTR promoter [1]; [6]
  identified as variability enhancer (VE) in noise screen: variability enhancers
[4]; [7]
  synergy in reactivation of HIV-1 latency: synergized

## sucralfate [V79]
HIV-1 LTR promoter [1]; [6]
  identified as variability enhancer (VE) in noise screen: variability enhancers
[4]
  synergy in reactivation of HIV-1 latency: synergized
